Reference: the supplement of paper PMC10307832

What was measured:
Assay in all cases: relative viability (nuclei count vs DMSO), 5 days (fraction); higher = more cells survive
[1] = compound: C[As](C)SC[C@H](NC(=O)CC[C@H](N)C(=O)O)C(=O)NCC(=O)O [Darinaparsin] + O=C(CCCCCCC(=O)Nc1ccccc1)NO [Vorinostat] (partner 1 µM)
Outline: (§1)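 For relative viability, nuclei counts in treated wells were divided by those in vehicle wells. Lung cancer cell lines had been pin-tool dosed in 1536-well plates the day after seeding and cultured for 5 days, then fixed and stained in one step (final 0.05% Triton X-100, 1% formaldehyde, 1 ug/ml Hoechst) and imaged at 4×. Doses were one drug alone or a fixed anchor-drug dose plus five library-drug doses (not always all listed) in √10 steps, and values are duplicate-plate medians.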

[2] = compound: C1CC2=C(C1)C=C(C=C2)OC3=NC(=C4C(=N3)N(C=N4)CC5=CC=C(C=C5)C6=CC=CC=C6)N[C@@H](CC7=CC=CC=C7)CO [QS11] + C[C@@H](Oc1cc(-c2cnn(C3CCNCC3)c2)cnc1N)c1c(Cl)ccc(F)c1Cl [Crizotinib] (partner 1 µM)
Outline: as §1

[3] = compound: CC1=C(C=C(C=C1)NC(=O)C2=CC(=CC=C2)C(C)(C)C#N)NC3=CC4=C(C=C3)N=CN(C4=O)C [AZ628] + COc1cccc2cc(-c3nc([C@H]4CC[C@H](C(=O)O)CC4)n4ncnc(N)c34)[nH]c12 [OSI-027] (partner 0.5 µM)
Outline: as §1

[4] = compound: C1CC2=C(C1)C=C(C=C2)OC3=NC(=C4C(=N3)N(C=N4)CC5=CC=C(C=C5)C6=CC=CC=C6)N[C@@H](CC7=CC=CC=C7)CO [QS11] + CCNC(=O)c1noc(-c2cc(C(C)C)c(O)cc2O)c1-c1ccc(CN2CCOCC2)cc1 [Luminespib] (partner 0.01 µM)
Outline: as §1

Cell Line	relative viability ([1]; first compound 0.08 µM)	relative viability ([1]; first compound 0.8 µM)	relative viability ([1]; first compound 2.53 µM)	relative viability ([1]; first compound 8 µM)	relative viability ([2]; first compound 0.08 µM)	relative viability ([2]; first compound 0.253 µM)	relative viability ([2]; first compound 2.53 µM)	relative viability ([2]; first compound 8 µM)	relative viability ([3]; first compound 0.08 µM)	relative viability ([3]; first compound 0.253 µM)	relative viability ([3]; first compound 0.8 µM)	relative viability ([3]; first compound 2.53 µM)	relative viability ([3]; first compound 8 µM)	relative viability ([4]; first compound 0.08 µM)	relative viability ([4]; first compound 0.253 µM)	relative viability ([4]; first compound 2.53 µM)	relative viability ([4]; first compound 8 µM)	relative viability ([2]; first compound 0.8 µM)	relative viability ([4]; first compound 0.8 µM)
H3255	0.746	0.788	0.745	0.895	0.869	0.973	1.02	0.847	0.64	0.484	0.564	0.584	0.323	0.818	1.06	0.966	0.961	–	–
HCC-827	0.874	0.818	0.775	0.963	0.917	0.914	0.854	0.787	0.741	0.82	0.796	0.703	0.418	0.587	0.508	0.694	0.675	0.643	0.597
LXF-289	0.775	0.788	0.828	0.779	0.814	0.807	0.687	0.617	0.812	0.763	0.736	0.74	0.434	0.544	0.739	0.519	0.551	0.678	0.544
NCI-H727	1.24	1.14	1.16	1.36	0.813	0.958	0.729	0.631	0.626	0.402	0.328	0.397	0.338	0.876	0.391	0.321	0.341	0.857	0.341
NCI-H322M	1.08	0.865	0.768	0.899	0.934	0.835	0.754	1	0.503	0.534	0.541	0.532	0.482	0.823	0.863	0.99	1.24	0.79	0.911
NCI-H2126	0.77	0.687	0.743	0.708	1.05	1	0.897	0.758	0.793	0.655	0.651	0.728	0.594	0.923	0.976	0.766	0.726	0.855	0.695
NCI-H2405	1.07	1.02	0.924	1.12	0.822	0.883	0.88	0.95	0.482	0.37	0.393	0.353	0.345	0.516	0.756	0.835	0.89	0.808	0.646
NCI-H1944	0.595	0.542	0.61	0.682	1.13	1.43	0.91	0.834	0.439	0.335	0.331	0.319	0.301	0.702	0.864	0.557	0.543	–	–
NCI-H520	0.737	0.723	0.735	0.785	–	0.907	0.587	0.932	0.262	0.21	0.206	0.203	0.232	0.25	0.369	0.231	0.209	0.831	0.228
NCI-H2228	0.771	0.839	0.388	0.672	0.425	0.467	0.356	0.41	0.627	0.521	0.519	0.623	0.281	0.0998	0.191	0.14	0.145	0.457	0.154
EKVX	0.787	0.653	0.764	0.737	1.13	1.03	0.749	1.2	0.715	0.673	0.804	0.764	0.572	0.907	0.732	0.848	1.03	–	–
